Laboratory results taken from patent publication US20100280070A1, “NOVEL TETRAHYDROQUINOLINES AS AROMATASE INHIBITORS” (priority 2008, published 2010).

Molecular target: T1, aromatase (Homo sapiens, UniProt P11511)
T1 sequence (P11511 1-503): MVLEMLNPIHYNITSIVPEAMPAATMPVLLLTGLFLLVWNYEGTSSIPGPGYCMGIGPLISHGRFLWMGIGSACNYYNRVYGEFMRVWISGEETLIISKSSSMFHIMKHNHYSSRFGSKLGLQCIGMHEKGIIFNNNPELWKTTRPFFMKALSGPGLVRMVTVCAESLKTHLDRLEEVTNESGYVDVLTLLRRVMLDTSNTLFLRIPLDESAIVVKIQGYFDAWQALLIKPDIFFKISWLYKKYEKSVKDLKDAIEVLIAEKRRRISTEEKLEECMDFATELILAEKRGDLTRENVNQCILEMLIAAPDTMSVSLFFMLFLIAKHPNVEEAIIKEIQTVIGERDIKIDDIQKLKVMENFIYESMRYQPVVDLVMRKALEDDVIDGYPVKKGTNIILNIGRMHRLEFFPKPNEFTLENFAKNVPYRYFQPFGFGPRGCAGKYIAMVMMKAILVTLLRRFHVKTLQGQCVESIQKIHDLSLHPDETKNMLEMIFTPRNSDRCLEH
Experiment: not given
Conditions: read-out: IC50 from human placental microsomal assay; cited from earlier work

With `C[C@]12CCC(=O)C(O)=C1CC[C@@H]1[C@@H]2CC[C@]2(C)C(=O)CC[C@@H]12` [Formestane] as the compound, how does the IC50 read?
The IC50 was 50 nM.

Molecular target: T1, aromatase
Experiment: not given
Conditions: Aminoglutethimide = 1; cited from earlier work

Which “RP, breast cancer homogenates” value does the source give for `CC(C)(C#N)c1cc(Cn2cncn2)cc(C(C)(C)C#N)c1` [Anasatrozole] here?
The value was 450.

With `N#Cc1ccc(C(c2ccc(C#N)cc2)n2cncn2)cc1` [Letrozole] as the compound, how does the “RP, breast cancer homogenates” value read?
Its value is 1800.

Molecular target: T1, aromatase
Experiment: Aromatase inhibition assay in human placental microsomes
Assay type: biochemical
Set-up: Microsomal protein (1 mg, from human placental tissue); from tissue; host or cells: human placenta, microsomal fraction
Conditions: inhibitor 500 nM; human placental microsomal protein; [1β-3H]androstenedione 15 nM; 15 min at 30° C.

With `c1ccc(C2CC(n3ccnc3)c3ccccc3N2)cc1` (stereo not shown) [Compound 6a, 2-Phenyl-4-imidazol-1-yl-1,2,3,4-tetrahydro-quinoline] as the compound, how does the inhibition at 0.5 µM read?
Its inhibition at 0.5 µM is 61.8%.

With `Cc1ccc(C2CC(n3ccnc3)c3ccccc3N2)cc1` (stereo not shown) [Compound 6b, 2-(p-Tolyl)-4-imidazol-1-yl-1,2,3,4-tetrahydro-quinoline] as the compound, how does the inhibition at 0.5 µM read?
The inhibition at 0.5 µM was 67.4%.

For `COc1ccc(C2CC(n3ccnc3)c3ccccc3N2)cc1` (stereo not shown) [Compound 6c, 2-(4-Methoxyphenyl)-4-imidazol-1-yl-1,2,3,4-tetrahydro-quinoline], which inhibition at 0.5 µM is on record?
Its inhibition at 0.5 µM is 53.1%.

For `Clc1ccc(C2CC(n3ccnc3)c3ccccc3N2)cc1` (stereo not shown) [Compound 6d, 2-(4-Chlorophenyl)-4-imidazol-1-yl-1,2,3,4-tetrahydro-quinoline], which inhibition at 0.5 µM is on record?
Its inhibition at 0.5 µM is 87.4%.

For `Brc1ccc(C2CC(n3ccnc3)c3ccccc3N2)cc1` (stereo not shown) [Compound 6e, 2-(4-Bromophenyl)-4-imidazol-1-yl-1,2,3,4-tetrahydro-quinoline], which inhibition at 0.5 µM is on record?
The inhibition at 0.5 µM was 89.7%.

For `N#Cc1ccc(C2CC(n3ccnc3)c3ccccc3N2)cc1` (stereo not shown) [Compound 6f, 4-(4-Imidazol-1-yl-1,2,3,4-tetrahydro-quinolin-2-yl)-benzonitrile], which inhibition at 0.5 µM is on record?
The inhibition at 0.5 µM was 84.3%.

For `Fc1ccc(C2CC(n3ccnc3)c3ccccc3N2)cc1` (stereo not shown) [Compound 6g, 2-(4-Fluorophenyl)-4-imidazol-1-yl-1,2,3,4-tetrahydro-quinoline], which inhibition at 0.5 µM is on record?
The inhibition at 0.5 µM was 80.5%.

For `c1ccc(C2CC(n3cncn3)c3ccccc3N2)cc1` (stereo not shown) [Compound 6h, 2-Phenyl-4-[1,2,4]triazol-1-yl-1,2,3,4-tetrahydro-quinoline], which inhibition at 0.5 µM is on record?
Its inhibition at 0.5 µM is 11.2%.

Which inhibition at 0.5 µM does the source give for `Cc1ccc(C2CC(n3cncn3)c3ccccc3N2)cc1` (stereo not shown) [Compound 6i, 2-(p-Tolyl)-4-[1,2,4]triazol-1-yl-1,2,3,4-tetrahydro-quinoline] here?
Its inhibition at 0.5 µM is 13.6%.

With `COc1ccc(C2CC(n3cncn3)c3ccccc3N2)cc1` (stereo not shown) [Compound 6j, 2-(4-Methoxyphenyl)-4-[1,2,4]triazol-1-yl-1,2,3,4-tetrahydro-quinoline] as the compound, how does the inhibition at 0.5 µM read?
Its inhibition at 0.5 µM is 12.8%.

For `Clc1ccc(C2CC(n3cncn3)c3ccccc3N2)cc1` (stereo not shown) [Compound 6k, 2-(4-Chlorophenyl)-4-[1,2,4]triazol-1-yl-1,2,3,4-tetrahydro-quinoline], which inhibition at 0.5 µM is on record?
The inhibition at 0.5 µM was 41.9%.

Which inhibition at 0.5 µM does the source give for `Brc1ccc(C2CC(n3cncn3)c3ccccc3N2)cc1` (stereo not shown) [Compound 6l, 2-(4-Bromophenyl)-4-[1,2,4]triazol-1-yl-1,2,3,4-tetrahydro-quinoline] here?
The inhibition at 0.5 µM was 43.9%.

With `N#Cc1ccc(C2CC(n3cncn3)c3ccccc3N2)cc1` (stereo not shown) [Compound 6m, 4-(4-[1,2,4]Triazol-1-yl-1,2,3,4-tetrahydro-quinolin-2-yl)-benzonitrile] as the compound, how does the inhibition at 0.5 µM read?
Its inhibition at 0.5 µM is 36.1%.

Which inhibition at 0.5 µM does the source give for `Fc1ccc(C2CC(n3cncn3)c3ccccc3N2)cc1` (stereo not shown) [Compound 6n, 2-(4-Fluorophenyl)-4-[1,2,4]triazol-1-yl-1,2,3,4-tetrahydro-quinoline] here?
The inhibition at 0.5 µM was 19.5%.

Which inhibition at 0.5 µM does the source give for `O=c1c(Cc2ccncc2)c(-c2ccccc2)[nH]c2ccccc12` [Compound 10a, 2-Phenyl-3-((pyridin-4-yl)methyl)quinolin-4(1H)-one] here?
Its inhibition at 0.5 µM is 7.2%.

Which inhibition at 0.5 µM does the source give for `Cc1ccc(-c2[nH]c3ccccc3c(=O)c2Cc2ccncc2)cc1` [Compound 10b, 2-(p-Tolyl)-3-((pyridin-4-yl)methyl)quinolin-4(1H)-one] here?
The inhibition at 0.5 µM was 3.1%.

Which inhibition at 0.5 µM does the source give for `COc1ccc(-c2[nH]c3ccccc3c(=O)c2Cc2ccncc2)cc1` [Compound 10c, 2-(4-Methoxyphenyl)-3-((pyridin-4-yl)methyl)quinolin-4(1H)-one] here?
Its inhibition at 0.5 µM is 0.7%.

Which inhibition at 0.5 µM does the source give for `O=c1c(Cc2ccncc2)c(-c2ccc(Cl)cc2)[nH]c2ccccc12` [Compound 10d, 2-(4-Chlorophenyl)-3-((pyridin-4-yl)methyl)quinolin-4(1H)-one] here?
Its inhibition at 0.5 µM is 13.7%.

With `O=c1c(Cc2ccncc2)c(-c2ccc(Br)cc2)[nH]c2ccccc12` [Compound 10e, 2-(4-Bromophenyl)-3-((pyridin-4-yl)methyl)quinolin-4(1H)-one] as the compound, how does the inhibition at 0.5 µM read?
The inhibition at 0.5 µM was 8.2%.

With `N#Cc1ccc(-c2[nH]c3ccccc3c(=O)c2Cc2ccncc2)cc1` [Compound 10f] as the compound, how does the inhibition at 0.5 µM read?
Its inhibition at 0.5 µM is 1.8%.

Which inhibition at 0.5 µM does the source give for `O=c1c(Cc2ccncc2)c(-c2ccc(F)cc2)[nH]c2ccccc12` [Compound 10g, 2-(4-Fluorophenyl)-3-((pyridin-4-yl)methyl)quinolin-4(1H)-one] here?
Its inhibition at 0.5 µM is 11.8%.

Which inhibition at 0.5 µM does the source give for `O=c1c(Cc2ccncc2)c(-c2ccccc2)[nH]c2c(Br)cc(Br)cc12` [Compound 10h, 6,8-Dibromo-2-phenyl-3-((pyridin-4-yl)methyl)quinolin-4(1H)-one] here?
Its inhibition at 0.5 µM is 27.3%.

With `Cc1ccc(-c2[nH]c3c(Br)cc(Br)cc3c(=O)c2Cc2ccncc2)cc1` [Compound 10i, 6,8-Dibromo-2-(p-tolyl)-3-((pyridin-4-yl)methyl)quinolin-4(1H)-one] as the compound, how does the inhibition at 0.5 µM read?
The inhibition at 0.5 µM was 22.3%.

For `COc1ccc(-c2[nH]c3c(Br)cc(Br)cc3c(=O)c2Cc2ccncc2)cc1` [Compound 10j, 6,8-Dibromo-2-(4-Methoxyphenyl)-3-((pyridin-4-yl)methyl)quinolin-4(1H)-one], which inhibition at 0.5 µM is on record?
The inhibition at 0.5 µM was 40.5%.

For `O=c1c(Cc2ccncc2)c(-c2ccc(Cl)cc2)[nH]c2c(Br)cc(Br)cc12` [Compound 10k, 6,8-Dibromo-2-(4-Chlorophenyl)-3-((pyridin-4-yl)methyl)quinolin-4(1H)-one], which inhibition at 0.5 µM is on record?
Its inhibition at 0.5 µM is 55.7%.

Molecular target: T1, aromatase
Experiment: not given
Conditions: mammary fibroblast cultures; Aminoglutethimide = 1; cited from earlier work

Which “RP, mammary fibroblast cultures” value does the source give for `CC(C)(C#N)c1cc(Cn2cncn2)cc(C(C)(C)C#N)c1` [Anasatrozole] here?
The value was 570.

With `N#Cc1ccc(C(c2ccc(C#N)cc2)n2cncn2)cc1` [Letrozole] as the compound, how does the “RP, mammary fibroblast cultures” value read?
Its value is 10,000.

Same assay, conditions: read-out: IC50, mammary fibroblast cultures; cited from earlier work

For `C[C@]12CCC(=O)C(O)=C1CC[C@@H]1[C@@H]2CC[C@]2(C)C(=O)CC[C@@H]12` [Formestane], which IC50 is on record?
Its IC50 is 45 nM.
